Measured values reported in PubChem BioAssay (NCI).
Where “and” joins values, the source holds several entries; their conditions need not be identical. Equal values may be shown once.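 Exposure lasted 48 hours, with cells grown in 96-well plates and compounds tested at five concentrations. GI50: concentration for 50% inhibition of growth. TGI is the concentration that stops growth completely.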

Columns and labels:
Assay in all cases: NCI tumour cell line growth inhibition, 48 h
SK-MEL-5 melanoma = test system: SK-MEL-5 melanoma
NCI-H23 lung = test system: NCI-H23 lung
HCC-2998 colon = test system: HCC-2998 colon
RPMI-8226 leukemia = test system: RPMI-8226 leukemia
TK-10 renal = test system: TK-10 renal
UO-31 renal = test system: UO-31 renal
OVCAR-4 ovarian = test system: OVCAR-4 ovarian
KM12 colon = test system: KM12 colon
SNB-75 CNS = test system: SNB-75 CNS
RXF 393 renal = test system: RXF 393 renal

CC(=O)Nc1ccc2c(c1)c(C1=C(c3cn(C)c4ccccc34)C(=O)NC1=O)cn2C
GI50 (SK-MEL-5 melanoma): 1.45 µM | TGI (SK-MEL-5 melanoma): > 25 µM | GI50 (NCI-H23 lung): 5.45 µM | TGI (NCI-H23 lung): > 25 µM | GI50 (HCC-2998 colon): > 11.2 µM | TGI (HCC-2998 colon): > 25 µM | GI50 (RPMI-8226 leukemia): 1.22 µM | TGI (RPMI-8226 leukemia): > 22.1 µM | GI50 (TK-10 renal): 4.21 µM | TGI (TK-10 renal): > 25 µM | GI50 (UO-31 renal): 1.16 µM | TGI (UO-31 renal): > 25 µM | GI50 (OVCAR-4 ovarian): 2.54 µM | TGI (OVCAR-4 ovarian): > 17.6 µM | GI50 (KM12 colon): 1.16 µM | TGI (KM12 colon): > 25 µM | GI50 (SNB-75 CNS): 0.465 µM | TGI (SNB-75 CNS): > 6.67 µM | GI50 (RXF 393 renal): 0.608 µM | TGI (RXF 393 renal): 2.68 µM

Cc1cc(C)nc(NS(=O)(=O)c2ccc(Nc3c4ccccc4nc4c(C(=O)Nc5ccc(S(=O)(=O)N=C(N)N)cc5)ccc(Cl)c34)cc2)n1
TGI (SK-MEL-5 melanoma): > 100 µM | TGI (NCI-H23 lung): 43.7 µM | TGI (HCC-2998 colon): 38.4 µM | TGI (RPMI-8226 leukemia): 80.1 µM | TGI (TK-10 renal): 95.5 µM | TGI (UO-31 renal): 73.9 µM | TGI (OVCAR-4 ovarian): 75.4 µM | TGI (KM12 colon): > 100 µM | TGI (SNB-75 CNS): > 100 µM | TGI (RXF 393 renal): 38.6 µM

COc1cc(O)c([C@@H]2C[C@H](CCc3ccc(O)cc3)O[C@H](c3ccc(O)cc3)C2)c(O)c1C(=O)/C=C/c1ccc(O)cc1
GI50 (SK-MEL-5 melanoma): 2.11 µM | TGI (SK-MEL-5 melanoma): 6.05 µM | GI50 (NCI-H23 lung): 2.57 µM | TGI (NCI-H23 lung): 5.71 µM | GI50 (HCC-2998 colon): 0.558 µM | TGI (HCC-2998 colon): 1.73 µM | GI50 (RPMI-8226 leukemia): 2.11 µM | TGI (RPMI-8226 leukemia): 4.68 µM | GI50 (TK-10 renal): 3.94 µM | TGI (TK-10 renal): 13.5 µM | GI50 (UO-31 renal): 2.9 µM | TGI (UO-31 renal): 7.96 µM | GI50 (OVCAR-4 ovarian): 3.8 µM | TGI (OVCAR-4 ovarian): 29.5 µM | GI50 (KM12 colon): 9.83 µM | TGI (KM12 colon): > 35 µM | GI50 (SNB-75 CNS): 2.86 µM | TGI (SNB-75 CNS): 8.22 µM | GI50 (RXF 393 renal): 2.48 µM | TGI (RXF 393 renal): 5.64 µM

Cc1cc(-c2ncc(CC(=O)Nc3ccc(-c4cnccn4)cn3)cc2C)ccn1
GI50 (SK-MEL-5 melanoma): 6.69 µM | TGI (SK-MEL-5 melanoma): 29.6 µM | GI50 (NCI-H23 lung): 23.6 µM | TGI (NCI-H23 lung): > 100 µM | GI50 (HCC-2998 colon): > 100 µM | TGI (HCC-2998 colon): > 100 µM | GI50 (RPMI-8226 leukemia): 19.2 µM | TGI (RPMI-8226 leukemia): > 100 µM | GI50 (TK-10 renal): 16.4 µM | TGI (TK-10 renal): > 100 µM | GI50 (UO-31 renal): 12.7 µM | TGI (UO-31 renal): > 100 µM | GI50 (OVCAR-4 ovarian): 6.11 µM | TGI (OVCAR-4 ovarian): > 100 µM | GI50 (KM12 colon): 36.1 µM | TGI (KM12 colon): > 100 µM | GI50 (SNB-75 CNS): 13.8 µM | TGI (SNB-75 CNS): > 100 µM | GI50 (RXF 393 renal): 42.2 µM | TGI (RXF 393 renal): > 100 µM

COc1ccc(C(=O)/C(Br)=C/C(=O)O)cc1
GI50 (SK-MEL-5 melanoma): 12.7 µM | TGI (SK-MEL-5 melanoma): 39.6 µM and 47.7 µM | GI50 (NCI-H23 lung): 21.3 µM | TGI (NCI-H23 lung): 112 µM and 205 µM | GI50 (HCC-2998 colon): 26.6 µM | TGI (HCC-2998 colon): 76.3 µM and 51.8 µM | GI50 (RPMI-8226 leukemia): 7.57 µM | TGI (RPMI-8226 leukemia): 110 µM and 78.6 µM | GI50 (TK-10 renal): 113 µM | TGI (TK-10 renal): 167 µM and 285 µM | GI50 (UO-31 renal): 20.3 µM | TGI (UO-31 renal): 77.7 µM and 103 µM | TGI (OVCAR-4 ovarian): 125 µM and 120 µM | TGI (KM12 colon): 48.8 µM and 48 µM | TGI (SNB-75 CNS): 145 µM and 186 µM | GI50 (RXF 393 renal): 6.8 µM and 15.1 µM | TGI (RXF 393 renal): 19.4 µM and 50 µM

COc1ccc(-c2nn3ncccc3c2-c2ccnc(Nc3ccc(Cl)c(C(F)(F)F)c3)n2)cc1
GI50 (SK-MEL-5 melanoma): 7.16 µM | TGI (SK-MEL-5 melanoma): > 22 µM | GI50 (NCI-H23 lung): 10.6 µM | TGI (NCI-H23 lung): > 25 µM | GI50 (HCC-2998 colon): 6.42 µM | TGI (HCC-2998 colon): 20.8 µM | GI50 (RPMI-8226 leukemia): 8.28 µM | TGI (RPMI-8226 leukemia): > 25 µM | GI50 (TK-10 renal): 13.2 µM | TGI (TK-10 renal): > 25 µM | GI50 (UO-31 renal): 6.32 µM | TGI (UO-31 renal): > 25 µM | GI50 (OVCAR-4 ovarian): 8.66 µM | TGI (OVCAR-4 ovarian): > 25 µM | GI50 (KM12 colon): 9.89 µM | TGI (KM12 colon): > 25 µM | GI50 (SNB-75 CNS): > 13.8 µM | TGI (SNB-75 CNS): > 25 µM | GI50 (RXF 393 renal): 5.66 µM | TGI (RXF 393 renal): > 24 µM

COc1ccc2c(c1)/C(=C\c1c(C)nc3sc(C)cn13)C(=O)N2C
GI50 (SK-MEL-5 melanoma): 2.15 µM | TGI (SK-MEL-5 melanoma): 5.49 µM | GI50 (NCI-H23 lung): 8.04 µM | TGI (NCI-H23 lung): 35.3 µM | GI50 (HCC-2998 colon): 1.37 µM | TGI (HCC-2998 colon): 4.68 µM | GI50 (RPMI-8226 leukemia): 4.75 µM | TGI (RPMI-8226 leukemia): > 100 µM | GI50 (TK-10 renal): 4.35 µM | TGI (TK-10 renal): 37.8 µM | GI50 (UO-31 renal): 10 µM | TGI (UO-31 renal): > 100 µM | GI50 (OVCAR-4 ovarian): 26.4 µM | TGI (OVCAR-4 ovarian): > 100 µM | GI50 (KM12 colon): 4.87 µM | TGI (KM12 colon): 43.4 µM | GI50 (SNB-75 CNS): 5.88 µM | TGI (SNB-75 CNS): 51.2 µM | GI50 (RXF 393 renal): 4.84 µM | TGI (RXF 393 renal): 48.3 µM
